pEC50, pIC50: −log10 of the molar value.
Key:
[1] = Microsomal stability in dog liver microsomes assessed as compound remaining at 5 uM measured after 60 mins in presence of NADPH by HPLC analysis; type: ADME, Canis lupus familiaris, Microsome; details: read-out: Stability
Cytochrome P450 3A4 = Cytochrome P450 3A4 (Homo sapiens, UniProt P08684); assay: Inhibition of CYP3A4 (unknown origin) using 7-benzyloxy-4-trifluoromethylcoumarin as substrate preincubated for 10 mins followed by addition of NADPH generating system measured after 30 mins by fluorescence based assay; type: ADME
Sequence of Cytochrome P450 3A4 (P08684 whole entry): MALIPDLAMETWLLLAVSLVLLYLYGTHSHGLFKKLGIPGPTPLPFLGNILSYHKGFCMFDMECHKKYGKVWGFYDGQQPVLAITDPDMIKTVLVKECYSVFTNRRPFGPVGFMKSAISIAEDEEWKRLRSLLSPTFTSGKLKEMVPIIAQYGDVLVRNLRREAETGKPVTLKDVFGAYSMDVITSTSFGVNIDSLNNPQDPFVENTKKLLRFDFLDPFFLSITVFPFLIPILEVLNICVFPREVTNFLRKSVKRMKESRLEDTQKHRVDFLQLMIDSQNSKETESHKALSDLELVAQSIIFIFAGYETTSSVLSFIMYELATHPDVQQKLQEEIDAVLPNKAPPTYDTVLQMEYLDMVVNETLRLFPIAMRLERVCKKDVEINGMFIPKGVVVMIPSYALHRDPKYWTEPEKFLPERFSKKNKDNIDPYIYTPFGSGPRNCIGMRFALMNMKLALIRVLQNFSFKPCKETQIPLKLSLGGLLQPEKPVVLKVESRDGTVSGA

Cytochrome P450 1A2 = biological target: T1, Cytochrome P450 1A2 (Homo sapiens, UniProt P05177); assay: Inhibition of CYP1A2 (unknown origin) using 7-ethoxy-3-cyanocoumarin as substrate preincubated for 10 mins followed by addition of NADPH generating system measured after 30 mins by fluorescence based assay; type: ADME
T1 sequence (P05177 whole entry): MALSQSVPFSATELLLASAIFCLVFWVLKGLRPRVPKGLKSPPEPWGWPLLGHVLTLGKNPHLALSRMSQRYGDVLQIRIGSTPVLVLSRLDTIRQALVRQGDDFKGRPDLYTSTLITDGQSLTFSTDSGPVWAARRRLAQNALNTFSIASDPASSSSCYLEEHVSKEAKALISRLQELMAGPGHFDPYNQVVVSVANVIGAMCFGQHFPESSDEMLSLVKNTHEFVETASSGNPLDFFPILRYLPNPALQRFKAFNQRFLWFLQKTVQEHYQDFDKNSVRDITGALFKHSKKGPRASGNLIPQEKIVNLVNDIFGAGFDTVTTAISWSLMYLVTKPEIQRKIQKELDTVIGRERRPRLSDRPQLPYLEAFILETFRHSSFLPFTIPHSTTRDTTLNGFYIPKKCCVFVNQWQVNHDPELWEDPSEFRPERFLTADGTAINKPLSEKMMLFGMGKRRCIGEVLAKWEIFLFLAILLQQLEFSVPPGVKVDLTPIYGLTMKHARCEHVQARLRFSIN

[2] = Agonist activity at GPR119 in Golden hamster HIT-T15 cells assessed as increase in intracellular cAMP level incubated for 1 hr by fluorescence based assay; type: cell-based; details: Mesocricetus auratus, HIT-T15, 1 h
Cytochrome P450 2C19 = Cytochrome P450 2C19 (Homo sapiens, UniProt P33261); assay: Inhibition of CYP2C19 (unknown origin) using 7-ethoxy-3-cyanocoumarin as substrate preincubated for 10 mins followed by addition of NADPH generating system measured after 30 mins by fluorescence based assay; type: ADME
Sequence of Cytochrome P450 2C19 (P33261 whole entry): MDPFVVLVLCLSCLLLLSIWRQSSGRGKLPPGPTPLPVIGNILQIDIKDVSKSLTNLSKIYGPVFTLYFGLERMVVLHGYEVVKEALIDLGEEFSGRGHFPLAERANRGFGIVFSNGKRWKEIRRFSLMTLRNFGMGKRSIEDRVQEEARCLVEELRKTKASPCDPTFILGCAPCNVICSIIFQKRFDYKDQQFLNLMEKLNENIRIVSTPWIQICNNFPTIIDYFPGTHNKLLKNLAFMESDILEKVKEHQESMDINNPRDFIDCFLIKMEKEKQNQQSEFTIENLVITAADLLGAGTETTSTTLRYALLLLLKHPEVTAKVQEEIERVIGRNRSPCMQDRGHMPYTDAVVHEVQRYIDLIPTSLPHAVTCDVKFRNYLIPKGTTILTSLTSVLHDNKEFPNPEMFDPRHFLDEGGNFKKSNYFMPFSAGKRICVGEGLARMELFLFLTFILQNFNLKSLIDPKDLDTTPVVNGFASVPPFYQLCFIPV

[3] = Microsomal stability in mouse liver microsomes assessed as compound remaining at 5 uM measured after 60 mins in presence of NADPH by HPLC analysis; type: ADME, Microsome; details: read-out: Stability
Cytochrome P450 2D6 = Cytochrome P450 2D6 (Homo sapiens, UniProt P10635); assay: Inhibition of CYP2D6 (unknown origin) using 3-[2-(N,N-diethyl-N-methylammonium)ethyl]-7-methoxy-4-methylcoumarin as substrate preincubated for 10 mins followed by addition of NADPH generating system measured after 30 mins by fluorescence based assay; type: ADME
Sequence of Cytochrome P450 2D6 (P10635 whole entry): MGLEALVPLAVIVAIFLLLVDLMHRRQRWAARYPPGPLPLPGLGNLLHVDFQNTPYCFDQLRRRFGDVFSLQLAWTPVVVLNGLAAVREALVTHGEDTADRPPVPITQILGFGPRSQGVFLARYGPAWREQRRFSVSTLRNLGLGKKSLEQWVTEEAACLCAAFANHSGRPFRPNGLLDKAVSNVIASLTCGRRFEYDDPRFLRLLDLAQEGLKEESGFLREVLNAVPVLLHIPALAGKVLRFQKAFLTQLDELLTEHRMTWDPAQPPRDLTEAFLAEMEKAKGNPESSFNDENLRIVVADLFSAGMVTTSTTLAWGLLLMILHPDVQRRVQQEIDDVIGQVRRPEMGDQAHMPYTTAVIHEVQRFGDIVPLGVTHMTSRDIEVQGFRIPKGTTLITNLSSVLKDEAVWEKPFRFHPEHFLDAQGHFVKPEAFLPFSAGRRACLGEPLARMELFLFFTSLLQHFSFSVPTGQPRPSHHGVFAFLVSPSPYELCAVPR

[4] = biological target: T2, Glucose-dependent insulinotropic receptor (Homo sapiens, UniProt Q8TDV5); assay: Agonist activity at human GPR119 expressed in CHO-K1 cells preincubated for 5 hrs followed by substrate addition measured after 2 hrs by fluorescence based assay; type: functional, cell-based
T2 sequence (Q8TDV5 whole entry): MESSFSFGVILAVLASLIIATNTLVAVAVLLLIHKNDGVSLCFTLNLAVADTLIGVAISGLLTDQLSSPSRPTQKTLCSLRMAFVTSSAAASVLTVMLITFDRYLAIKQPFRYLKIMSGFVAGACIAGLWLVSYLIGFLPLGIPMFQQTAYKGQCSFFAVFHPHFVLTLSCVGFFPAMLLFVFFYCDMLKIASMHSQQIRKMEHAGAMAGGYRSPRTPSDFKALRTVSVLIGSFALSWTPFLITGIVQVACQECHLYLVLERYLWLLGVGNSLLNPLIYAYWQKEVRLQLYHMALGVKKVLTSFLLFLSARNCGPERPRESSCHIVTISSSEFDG

Cytochrome P450 2C9 = Cytochrome P450 2C9 (Homo sapiens, UniProt P11712); assay: Inhibition of CYP2C9 (unknown origin) using 7-methoxy-4-trifluoromethylcoumarin as substrate preincubated for 10 mins followed by addition of NADPH generating system measured after 30 mins by fluorescence based assay; type: ADME
Sequence of Cytochrome P450 2C9 (P11712 whole entry): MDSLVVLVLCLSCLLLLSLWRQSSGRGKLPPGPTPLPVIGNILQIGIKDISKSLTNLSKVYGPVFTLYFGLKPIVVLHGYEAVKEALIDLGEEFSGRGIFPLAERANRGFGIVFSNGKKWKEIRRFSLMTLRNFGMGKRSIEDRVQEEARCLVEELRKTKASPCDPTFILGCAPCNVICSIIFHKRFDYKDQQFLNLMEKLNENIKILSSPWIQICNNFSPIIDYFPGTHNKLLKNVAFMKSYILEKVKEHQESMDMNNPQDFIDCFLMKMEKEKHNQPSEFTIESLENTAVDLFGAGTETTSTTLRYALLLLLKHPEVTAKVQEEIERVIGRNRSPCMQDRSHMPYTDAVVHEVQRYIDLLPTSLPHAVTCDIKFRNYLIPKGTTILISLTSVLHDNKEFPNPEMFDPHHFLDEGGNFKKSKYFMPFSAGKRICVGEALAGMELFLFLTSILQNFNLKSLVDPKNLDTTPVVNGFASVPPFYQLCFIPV

[5] = Microsomal stability in human liver microsomes assessed as compound remaining at 5 uM measured after 60 mins in presence of NADPH by HPLC analysis; type: ADME, Microsome; details: read-out: Stability
[6] = MRTlast in ICR mouse at 10 mg/kg, po; type: ADME, organism-based; details: in vivo
[7] = Half life in Sprague-Dawley rat at 5 mg/kg, po; type: ADME, organism-based; details: in vivo
[8] = Tmax in ICR mouse at 10 mg/kg, po; type: ADME, organism-based; details: in vivo
[9] = Volume of distribution in Sprague-Dawley rat at 1 mg/kg, iv; type: ADME, organism-based; details: in vivo
[10] = Tmax in Sprague-Dawley rat at 5 mg/kg, po; type: ADME, organism-based; details: in vivo
[11] = Half life in ICR mouse at 10 mg/kg, po; type: ADME, organism-based; details: in vivo
[12] = Volume of distribution in ICR mouse at 1 mg/kg, iv; type: ADME, organism-based; details: in vivo
[13] = Microsomal stability in rat liver microsomes assessed as compound remaining at 5 uM measured after 60 mins in presence of NADPH by HPLC analysis; type: ADME, Microsome; details: read-out: Stability
[14] = Clearance in Sprague-Dawley rat at 1 mg/kg, iv; type: ADME, organism-based; details: in vivo
[15] = Half life in ICR mouse at 1 mg/kg, iv; type: ADME, organism-based; details: in vivo
[16] = Oral bioavailability in ICR mouse at 10 mg/kg; type: ADME, organism-based; details: in vivo
[17] = MRTlast in Sprague-Dawley rat at 5 mg/kg, po; type: ADME, organism-based; details: in vivo
[18] = AUC (0 to 24 hrs) in Sprague-Dawley rat at 5 mg/kg, po; type: ADME, organism-based; details: in vivo
[19] = AUC (0 to 24 hrs) in ICR mouse at 10 mg/kg, po; type: ADME, organism-based; details: in vivo
[20] = Half life in Sprague-Dawley rat at 1 mg/kg, iv; type: ADME, organism-based; details: in vivo
[21] = Clearance in ICR mouse at 1 mg/kg, iv; type: ADME, organism-based; details: in vivo
[22] = Oral bioavailability in Sprague-Dawley rat at 5 mg/kg; type: ADME, organism-based; details: in vivo
[23] = AUC (0 to 24 hrs) in ICR mouse at 1 mg/kg, iv; type: ADME, organism-based; details: in vivo
[24] = MRTlast in ICR mouse at 1 mg/kg, iv; type: ADME, organism-based; details: in vivo
[25] = Cmax in Sprague-Dawley rat at 5 mg/kg, po; type: ADME, organism-based; details: in vivo
[26] = Cmax in ICR mouse at 10 mg/kg, po; type: ADME, organism-based; details: in vivo
[27] = AUC (0 to 24 hrs) in Sprague-Dawley rat at 1 mg/kg, iv; type: ADME, organism-based; details: in vivo
Mus musculus = assay: Anti-diabetic activity in C57BL mouse assessed as reduction in AUC (0 to 2 hrs) at 3 mg/kg, po followed by oral administration of glucose measured for 2 hrs by OGTT assay relative to control; type: functional; design: scale not given: the % may be the effect or the level left
[28] = MRTlast in Sprague-Dawley rat at 1 mg/kg, iv; type: ADME, organism-based; details: in vivo
Rattus norvegicus = assay: Anti-diabetic activity in Sprague-Dawley rat assessed as reduction in AUC (0 to 2 hrs) at 3 mg/kg, po followed by oral administration of glucose measured for 2 hrs by OGTT assay relative to control; type: functional; design: scale not given: the % may be the effect or the level left

SMILES: CC(C)c1noc(C2CCN(c3ncnc4c(-c5ccc(S(C)(=O)=O)cc5)csc34)CC2)n1
- remaining at 1 h, 5 µM [1]: 6%
- pIC50 (Cytochrome P450 3A4): 4.92
- pIC50 (Cytochrome P450 1A2): < 4.30
- pEC50 [2]: 7.94
- pIC50 (Cytochrome P450 2C19): 5.43
- remaining at 1 h, 5 µM [3]: 21%
- pIC50 (Cytochrome P450 2D6): < 4.30
- pEC50 [4]: 7.93
- pIC50 (Cytochrome P450 2C9): > 6.21
- remaining at 1 h, 5 µM [5]: 13%

SMILES: CC(C)c1noc(N2CCC(Oc3ncnc4c(-c5ccc(S(C)(=O)=O)cc5F)csc34)CC2)n1
- MRT last [6]: 3.8 h
- half-life [7]: 2.4 h
- Tmax [8]: 0.5 h
- Vd [9]: 1.2 L/kg
- Tmax [10]: 1 h
- half-life [11]: 2.2 h
- Vd [12]: 1.2 L/kg
- remaining at 1 h, 5 µM [13]: 48%
- clearance [14]: 5 mL/min/kg
- remaining at 1 h, 5 µM [1]: 62%
- half-life [15]: 3.4 h
- bioavailability [16]: > 100%
- MRT last [17]: 3.2 h
- AUC(0-t) [18]: 5720 ng·h/mL
- pIC50 (Cytochrome P450 3A4): 5.42
- AUC(0-t) [19]: 32700 ng·h/mL
- half-life [20]: 2.8 h
- pIC50 (Cytochrome P450 1A2): < 4.30
- clearance [21]: 5 mL/min/kg
- pEC50 [2]: 7.64
- pIC50 (Cytochrome P450 2C19): 5.26
- bioavailability [22]: 61.5%
- AUC(0-t) [23]: 2770 ng·h/mL
- remaining at 1 h, 5 µM [3]: 38%
- pIC50 (Cytochrome P450 2D6): < 4.30
- MRT last [24]: 3 h
- Cmax [25]: 1480 ng/mL
- Cmax [26]: 9130 ng/mL
- AUC(0-t) [27]: 1860 ng·h/mL
- pEC50 [4]: 8.20
- Activity (Mus musculus): 37.4%
- pIC50 (Cytochrome P450 2C9): < 4.30
- MRT last [28]: 3.6 h
- Activity (Rattus norvegicus): 15%
- remaining at 1 h, 5 µM [5]: 35%

SMILES: CCN(c1ncnc2c(-c3ccc(S(C)(=O)=O)cc3)csc12)C1CCN(C(=O)OC(C)(C)C)CC1
- pEC50 [4]: < 7.00

SMILES: CC(C)c1noc(N2CCC(Oc3ncnc4c(-c5ccc(S(C)(=O)=O)cc5)csc34)C2)n1 (configuration not stated)
- pEC50 [4]: 6.12

SMILES: CS(=O)(=O)c1ccc(-c2csc3c(N4CCC(c5nc(C6CC6)no5)CC4)ncnc23)cc1
- pEC50 [2]: 7.77
- pEC50 [4]: 7.62

SMILES: CCN(c1ncnc2c(-c3ccc(S(C)(=O)=O)cc3)csc12)C1CCN(c2ccc(C(F)(F)F)cn2)CC1
- pEC50 [4]: < 7.00

SMILES: CCCc1noc(N2CCC(Oc3ncnc4c(-c5ccc(S(C)(=O)=O)cc5F)csc34)CC2)n1
- pEC50 [4]: 8.68

SMILES: CS(=O)(=O)c1ccc(-c2csc3c(N4CCCC4)ncnc23)cc1
- pEC50 [4]: < 7.00

SMILES: CC(C)(C)OC(=O)N1CCC(Oc2ncnc3c(-c4ccc(S(C)(=O)=O)cc4F)csc23)CC1
- pEC50 [4]: 8.85

SMILES: CC(C)(C)c1noc(N2CCC(Oc3ncnc4c(-c5ccc(S(C)(=O)=O)cc5F)csc34)CC2)n1
- pEC50 [4]: 8.44

SMILES: CCc1cnc(N2CCC(N(C)c3ncnc4c(-c5ccc(S(C)(=O)=O)cc5)csc34)CC2)nc1
- pEC50 [2]: 7.44
- pEC50 [4]: 8.13

SMILES: CCc1cnc(N2CCC(Oc3ncnc4c(-c5ccc(S(C)(=O)=O)cc5)csc34)C2)nc1 (configuration not stated)
- pEC50 [4]: 7.13

SMILES: CCc1cnc(N2CCC(c3nc(COc4ccc(-n5cnnn5)cc4)cs3)CC2)nc1 [MBX-2982]
- pEC50 [2]: 8.70
- pEC50 [4]: 8.51
- Activity (Mus musculus): 29%
- Activity (Rattus norvegicus): 7.3%

SMILES: CS(=O)(=O)c1ccc(-c2csc3c(OC4CCN(c5nc(C6CCCC6)no5)CC4)ncnc23)cc1
- pEC50 [2]: < 6.00
- pEC50 [4]: 8.25

SMILES: CS(=O)(=O)c1ccc(-c2csc3c(N4CCC(c5nc(C6CCCCC6)no5)CC4)ncnc23)cc1
- pEC50 [2]: 7.49
- pEC50 [4]: 7.90

SMILES: CS(=O)(=O)c1ccc(-c2csc3c(OC4CCN(c5nc(C6CC6)no5)CC4)ncnc23)cc1
- pEC50 [2]: 7.33
- pEC50 [4]: 7.61

SMILES: CN1CCC(Oc2ncnc3c(-c4ccc(S(C)(=O)=O)cc4F)csc23)CC1
- pEC50 [4]: < 7.00

SMILES: CS(=O)(=O)c1ccc(-c2csc3c(OC4CCNCC4)ncnc23)c(F)c1
- pEC50 [4]: < 7.00

SMILES: CCc1cnc(N2CCC(N(CC)c3ncnc4c(-c5ccc(S(C)(=O)=O)cc5)csc34)CC2)nc1
- pEC50 [2]: 6.81
- pEC50 [4]: 7.82

SMILES: CS(=O)(=O)c1ccc(-c2csc3c(N4CCC(c5nc(C6CCCC6)no5)CC4)ncnc23)c(F)c1
- pEC50 [2]: 7.06
- pEC50 [4]: 8.72

SMILES: CS(=O)(=O)c1ccc(-c2csc3c(N4CCC(c5nc(C6CCCC6)no5)CC4)ncnc23)cc1
- remaining at 1 h, 5 µM [13]: 9%
- remaining at 1 h, 5 µM [1]: 10%
- pEC50 [2]: 7.80
- remaining at 1 h, 5 µM [3]: 23%
- pEC50 [4]: 8.06

SMILES: CN(c1ncnc2c(-c3ccc(S(C)(=O)=O)cc3)csc12)C1CCN(C(=O)OC(C)(C)C)CC1
- pEC50 [2]: 7.72
- pEC50 [4]: 7.47

SMILES: CC(C)(C)OC(=O)N1CCC(Nc2ncnc3c(-c4ccc(S(C)(=O)=O)cc4)csc23)CC1
- pEC50 [4]: < 7.00

SMILES: CS(=O)(=O)c1ccc(-c2csc3c(N4CCCCC4)ncnc23)cc1
- pEC50 [4]: < 7.00

— ChEMBL document CHEMBL5620399, “Discovery of orally active sulfonylphenyl thieno[3,2-d]pyrimidine derivatives as GPR119 agonists” (Eur J Med Chem, 2023)
